PubChem BioAssay (NCI)
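Cultured in 96-well plates, cells were exposed to test compound for 48 hours across five concentrations. TGI marks complete inhibition of growth.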

What was measured:
Assay in all cases: growth of human tumour cells (NCI), 48 h
[1] = test system: HCC-2998 colon
[2] = test system: A498 renal
[3] = test system: TK-10 renal
[4] = test system: COLO 205 colon
[5] = test system: M14 melanoma
[6] = test system: UACC-62 melanoma
[7] = test system: HOP-62 NSCLC
[8] = test system: HT29 colon
[9] = test system: HS 578T breast
[10] = test system: SR leukemia

SMILES | TGI [1] | TGI [2] | TGI [3] | TGI [4] | TGI [5] | TGI [6] | TGI [7] | TGI [8] | TGI [9] | TGI [10]
CN1c2ccccc2N(C(=O)c2ccc([N+](=O)[O-])cc2)C(CC(=O)O)c2cccn21 (stereo not drawn) | > 100 µM | > 100 µM | > 100 µM | > 100 µM | > 100 µM | > 100 µM | > 100 µM | > 100 µM | – | –
CC(C)C1=CC(=O)C(C)(C2C(O)CC3(C)C4CC=C5C(CCC(OC6OC(CO)C(O)C(O)C6OC6OC(C)C(O)C(O)C6O)C5(C)C)C4(C)C(=O)CC23C)O1 (stereo not drawn) | > 100 µM | > 100 µM | – | > 100 µM | > 100 µM | > 100 µM | > 100 µM | > 100 µM | > 100 µM | –
CCC(C)CCOC(=O)c1ccc(N=Cc2ccc(C=Nc3ccc(C(=O)OCCC(C)CC)cc3)cc2)cc1 (stereo not drawn) | > 100 µM | > 100 µM | – | > 100 µM | > 100 µM | > 100 µM | > 100 µM | > 100 µM | – | > 100 µM
O=C(N/C(=C\c1ccc(Cl)cc1)c1nc2ccccc2[nH]1)c1ccccc1 | – | 52.4 µM | 63.8 µM | 35.6 µM | 34.1 µM | 32.3 µM | – | 81.3 µM | – | –
Cc1cc(NCCCCCCCCNc2cc(C)nc3cc(N)ccc23)c2ccc(N)cc2n1 | 38.8 µM | > 100 µM | > 100 µM | 31.2 µM | 35.6 µM | 38.4 µM | 75.1 µM | 75 µM | – | > 100 µM
CC(C)(O)[C@@H]1CC[C@@]2(C)CCCC(O)C2(O)C1 (stereo partly drawn) | > 100 µM | > 100 µM | > 100 µM | > 100 µM | > 100 µM | > 100 µM | > 100 µM | > 100 µM | – | > 100 µM
C[C@@H](NC1CCCC[C@H]1O)c1ccccc1 (stereo partly drawn) | > 100 µM | > 100 µM | > 100 µM | > 100 µM | > 100 µM | > 100 µM | > 100 µM | > 100 µM | – | –
N#CCCN(c1ccc(C=Nc2ccccc2)cc1)S(=O)(=O)c1ccccc1 | > 100 µM | > 100 µM | > 100 µM | > 100 µM | > 100 µM | > 100 µM | > 100 µM | > 100 µM | – | > 100 µM
Nc1ncnc2c1ncn2[C@]1(CO)C=C(CO)C(O)C1O (stereo partly drawn) | > 100 µM | > 100 µM | > 100 µM | > 100 µM | > 100 µM | – | > 100 µM | > 100 µM | – | > 100 µM
